The term IC50 denotes the point on the concentration scale where inhibition reaches its midpoint.

Some results are limits rather than exact numbers.

This note sets out measurements from patent US20230090742A1, “AMINOPYRIMIDINYLAMINOBENZONITRILE DERIVATIVES AS NEK2 INHIBITORS” (Sumitomo Pharma Oncology, Inc., priority 2020, published 2023).

The target in test [1] is T1, NEK2 kinase (Accession No. NP-002488) (Homo sapiens, UniProt P51955).
T1 construct: purchased ThermoFisher Scientific (Invitrogen)
T1 sequence (P51955 1-445): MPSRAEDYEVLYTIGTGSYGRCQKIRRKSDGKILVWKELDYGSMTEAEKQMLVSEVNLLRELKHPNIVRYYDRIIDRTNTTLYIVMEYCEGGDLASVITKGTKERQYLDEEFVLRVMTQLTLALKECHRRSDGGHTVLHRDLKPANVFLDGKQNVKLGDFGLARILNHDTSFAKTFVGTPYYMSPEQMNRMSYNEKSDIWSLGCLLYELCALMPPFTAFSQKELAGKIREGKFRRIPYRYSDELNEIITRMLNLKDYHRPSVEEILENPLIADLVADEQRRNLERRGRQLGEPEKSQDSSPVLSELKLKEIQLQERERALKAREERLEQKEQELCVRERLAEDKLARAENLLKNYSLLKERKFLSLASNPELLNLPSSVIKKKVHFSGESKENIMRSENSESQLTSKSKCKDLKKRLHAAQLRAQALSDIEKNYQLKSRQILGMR
Put plainly: HotSpot Kinase Assay, NEK2. In kind it is biochemical. The following applies: HotSpot Kinase Assay; read-out: NEK2 IC50. On the procedure: In this example, the compounds described herein were tested for their inhibitory activity against NEK2 and/or Aurora A using the HotSpot™ Kinase Assay (Reaction Biology Corp.). The assay was performed according to the manufacturer's protocol, as detailed below. The NEK2 kinase (Accession No. NP-002488) and Aurora A kinase (Accession No. NP-940839) for use in these assays was sourced from ThermoFisher Scientific (Invitrogen).
The base Reaction Buffer used in this experiment contained the following: 20 mM Hepes (pH 7.5), 10 mM MgCl2, 1 mM EGTA, 0.02% Brij™-35, 0.02 mg/ml BSA, 0.1 mM Na3VO4, 2 mM DTT, and 1% DMSO. The required cofactors were added individually to each kinase reaction.
Testing compounds were dissolved in 100% DMSO to a specific concentration. The serial dilution was conducted by Integra Viaflo Assist in DMSO.
The substrate was prepared in freshly prepared Reaction Buffer. The required cofactors were delivered to the substrate solution described above. NEK2 kinase or Aurora A kinase was delivered to the substrate solution and gently mixed. Next, the compounds in 100% DMSO were transferred to the kinase reaction mixture by Acoustic technology (Echo550; nanoliter range) and incubated for 20 min at room temperature. ^33P-ATP (Specific activity 10 μCi/μl) was delivered into the reaction mixture to initiate the reaction. The reaction was incubated for 2 hours at room temperature. Radioactivity was then detected by the filter-binding method. Kinase activity data were expressed as the percent remaining kinase activity in test samples compared to vehicle (dimethyl sulfoxide) reactions. IC50 values and curve fits were obtained using Prism (GraphPad Software).

Test [2] has as its system phosphorylation of PP1α and HEC1. Kind of test: Western blot analysis for phospho-PP1α and phospho-Hec1 in cell cycle synchronized MDA-MB-231 cells. The following applies: double thymidine block and nocodazole, 10, 50, 100, and 500 nM. Type of test: cell-based. As to the method: Reagents. MDA-MB-231 (Breast adenocarcinoma, triple negative breast cancer) and SW480 (colorectal adenocarcinoma, stem-like subtype) cells were purchased from ATCC and cultured as per manufacturer's instruction. Thymidine (Sigma, T9250) stock solution (100 mM) was prepared in PBS. 2′-Deoxycytidine (Sigma, D897) stock solution (240 mM) was prepared in distilled H2O. Nocodazole (Selleck Chemicals, S2775) stock solution (5 mg/mL) was made in dimethyl sulfoxide (DMSO). FxCycle Far Red stain (F10348) for cell cycle analysis was purchased from Thermo Fisher Scientific.
Antibodies. […]
Cell Cycle Synchronization. […] Effectiveness of NEK2 inhibitors (Cmpd-16 and Cmpd-18) were assessed by adding small molecule inhibitors with nocodozole at 10, 50, 100, and 500 nM concentration at the time of nocodazole addition. […]
Immunoblot Analysis. […] Whole cell lysates were sonicated and centrifuged at 16000×g for 10 minutes at 4° C., and protein concentration of the supernatant were determined using BCA Protein assay kit (ThermoScientific, 23225). Equal amounts of protein lysates (30 μg/lane and 10 μg/lane only for Histone H3 immunoblots) were fractionated on a NuPAGE Novex 4%-12% Bis-Tris Protein Gel (Thermo Fisher Scientific, NP0335BOX) and transferred onto a low fluorescence PVDF membrane (Millipore, IPFL07810). […] Li-Cor Image Studio software was used for western blot analysis and quantification
On the technique in general: In western blotting, separated proteins are transferred to a membrane and probed.

On to `N#Cc1c(Nc2nc(Nc3ccc(N4CCNCC4)cc3)ncc2Cl)cccc1OCc1ccccc1F` [Compound 16, 2-((5-chloro-2-((4-(piperazin-1-yl)phenyl)amino)pyrimidin-4-yl)amino)-6-((2-fluorobenzyl)oxy)benzonitrile], for which the IC50 in test [1] is no more than 5 nM. Moreover, the “phosphorylation of PP1α and HEC1 (HistoneH3 phosphorylation as marker of mitosis)” value in test [2] is “more specifically inhibited phosphorylation of PP1α and HEC1 without interfering in cell cycle progression than Cmpd-18”.
